Where two headings read alike, the source gives them in different places. Peptide text beside a SMILES is read from it.

Data set [1] has as its system SKRC 52 cells. As to the kind of experiment: In vitro (medium) stability of 125I-labeled peptide on SKRC 52 cells. It counts as in vitro ADME, human. As to the method:
(§1) Radio-HPLC was performed on an Agilent 1100 HPLC system equipped with a radioactivity detector (GABI Star, Raytest GmbH, Straubenhardt, Germany) using a Chromolith Performance RP-18e column (100×3 mm; Merck AG Darmstadt, Germany) eluted with a linear gradient (eluent A: 0.1% TFA in water; eluent B: 0.1% TFA in acetonitrile; 0–30% B in 10 min, flow rate: 2 mL/min).
(§2) ^125I-labeled peptide was incubated at 37°C on SKRC 52 and BxPC3 cells. At time points varying from 10 min to 2 h aliquots were taken and centrifuged for 5 min at 13,000 rpm. The supernatant was analyzed by HPLC with H2O∶CH3CN, 0–30% in 10 min.

A further data set is described as follows: Serum stability assay. In kind it is in vitro ADME. Particulars: radiolabeled peptide 5 MBq in 500 µL human serum (Sigma Aldrich, H4522), 37°C, aliquots by radio-HPLC. As to the method:
as §1
Metabolic stability was investigated in human serum (Sigma Aldrich, H4522). 5 MBq of radiolabeled peptide was dissolved in human serum (500 µL) and incubated at 37°C. The stability of the labeled peptide was monitored by analyzing aliquots (25 µl) via radio-HPLC at selected time points.

The test system of data set [2] is SKRC 52 cells. It counts as binding, human. The following applies: for inhibition of the radioligand binding: 10^−4 mol/L competitor concentration; for inhibition of the radioligand binding / binding inhibition: 125I-CaIX-P1-4-10 on SKRC 52 cells; for binding inhibition: competitor concentration of 10^−5 mol/L. As to the method:
(§3) For binding experiments 5×10^5 SKRC 52 or BxPC3 cells were seeded into 6-well plates and cultivated in 3 mL of incubation medium at 37°C for 24 h. After cell blocking with RPMI 1640 (without FCS) containing 1% BSA, the medium was replaced with 1 mL of fresh medium (without FCS) containing 0.8–1.2×10^6 cpm of ^125I-labeled peptide and incubation was performed for time periods varying from 10 min to 2 h at 37°C. To determine specific versus nonspecific binding, the cells were incubated with unlabeled competitors at concentrations varying from 10^−4 to 10^−10 mol/L. Octreotide was used as negative control competitor. After incubation the medium was removed and the cells were washed three times with 1 mL ice cold PBS in order to remove the unbound radiolabeled peptide. Subsequently, the cells were lysed with 0.5 mL NaOH 0.3 mol/L and the radioactivity was measured with a γ-counter. Bound radioactivity was calculated as percentage applied dose per 10^6 cells. CA IX negative BxPC3 cells were used as negative control.

In the next data set the test system is BxPC3 cells. As to the kind of experiment: In vitro (medium) stability of 125I-labeled peptide on BxPC3 cells. It counts as in vitro ADME, human. Particulars: 37°C, 10 min to 2 h, supernatant by radio-HPLC. The protocol: as §1, §2
Data set [3] relates to CA IX positive human renal cell carcinoma SKRC 52 cells. As to the kind of experiment: In vitro binding of 125I-labeled peptides on SKRC 52 cells. Particulars: for binding capacity on SKRC 52 cells compared to the native CaIX-P1 peptide: 125I-labeled fragments, result in words; for binding after 10 minutes compared to 30 minutes incubation: 125I-labeled peptides. The protocol:
as §3

A further data set in a line: in vivo. Details: species or system Balb/c nu/nu mice. The following applies: female, Balb/c nu/nu, mouse, iv, 1 MBq, total radioactivity, Tumor to organ ratio. The protocol: Organ distribution studies were performed in 9-week-old female Balb/c nu/nu mice, carrying subcutaneously transplanted SKRC 52 tumors. Animals were obtained from Charles River WIGA and housed in VentiRacks (BioZone Global). For tumor transplantation, SKRC 52 cells were grown to 90% confluence, harvested with PBS/ethylene diamine tetraacetic acid, resuspended in Falcon Matrigel-Matrix (BD) and kept on ice. 200 µl of Matrigel-Matrix cell suspension were injected subcutaneously into the anterior region of the mouse trunk and the tumors were grown to a size of 1.0 cm^3. ^131I-labeled CaIX-P1-4-10 was injected into the tail vein of the animals (approximately 1 MBq) and at 15 min, 60 min and 240 min after injection the animals were sacrificed. Tumor, blood and selected tissues (heart, spleen, liver, kidney, muscle, intestinum and brain) were removed, drained of blood, weighed and the radioactivity was measured in a γ-counter (LB 951G; Berthold Technologies). Also 3 aliquots of the tracer solution used for injection were measured. The organ uptake was calculated as percentage injected dose per gram tissue (% ID/g).

As for `CC(C)C[C@H](NC(=O)[C@@H]1CCCN1C(=O)[C@@H](NC(=O)[C@H](Cc1c[nH]cn1)NC(=O)[C@@H](N)CC(N)=O)C(C)C)C(=O)N[C@@H](CO)C(=O)N1CCC[C@H]1C(=O)N[C@H](Cc1ccc(O)cc1)C(N)=O` [CaIX-P1-4-10] (HELM PEPTIDE1{N.H.V.P.L.S.P.[dY].[am]}$$$$V2.0; N-terminus assumed), the “degradation in medium at 120 min” value with SKRC 52 cells [1] (125I-labeled peptide on SKRC 52 cells, 37°C, 120 min incubation, supernatant by radio-HPLC) is on record as “completely degraded”. The “activity (intact radioligand) measured in medium” value in the data set with SKRC 52 cells [1] (125I-labeled peptide on SKRC 52 cells, 37°C, after 60 min incubation, supernatant by radio-HPLC) is on record as 30%. Further, the “degradation site in the sequence” value in the data set with SKRC 52 cells [1] (comparison of HPLC chromatograms of C-terminal fragments with SKRC 52 cell medium supernatants) is “degraded between ^6S and ^7P”. In addition, the Serum half life in “Serum stability assay” is listed as 1.5 h. In the data set with SKRC 52 cells [2], the “inhibition of the radioligand binding” value is “over 95%” and the binding inhibition entry was “about 95%”. In addition, half-maximal inhibition in the data set with SKRC 52 cells [2] (24 h) (IC50) required 130 nM. Also, in the data set on BxPC3 cells, the “radioligand degradation in medium on BxPC3 cells” value was “No radioligand degradation”. For the same compound, the “binding capacity on SKRC 52 cells compared to the native CaIX-P1 peptide” value in data set [3] is recorded as “almost six-fold binding”.
Take `CC(C)C[C@H](NC(=O)[C@@H]1CCCN1C(=O)[C@@H](NC(=O)[C@H](Cc1c[nH]cn1)NC(=O)[C@@H](N)CC(N)=O)C(C)C)C(=O)N[C@@H](CO)C(=O)N1CCC[C@H]1C(=O)N[C@H](Cc1ccc(O)c(I)c1)C(N)=O` [^131I-CaIX-P1-4-10] (HELM PEPTIDE1{N.H.V.P.L.S.P.[O=C([C@@H](Cc1ccc(O)c(I)c1)N[*:1])[*:2]].[am]}$$$$V2.0; N-terminus assumed): the tissue to tissue ratio at 0.25 h in “in vivo” (Blood) turned out to be 0.63; in the data set “in vivo” (Brain), 13.9; in “in vivo” (Heart), 1.63; in “in vivo” (Kidney) it was 0.56; in “in vivo” (Liver), 1.32; in the data set “in vivo” (Lung), 0.86. Also, the tissue to tissue ratio at 0.25 h in the data set “in vivo” (Muscle) came to 3.36; in “in vivo” (Spleen), 1.06. Further, the tissue to tissue ratio at 1 h in the data set “in vivo” (Blood) stood at 0.69; in “in vivo” (Brain) it was 14.9; in the data set “in vivo” (Heart) it was 2.09; in the data set “in vivo” (Kidney) it was 0.73; in the data set “in vivo” (Liver), 1.65; in the data set “in vivo” (Lung) it was 0.88. The tissue to tissue ratio at 1 h worked out at 3.39 in the data set “in vivo” (Muscle) and 1.39 in “in vivo” (Spleen). Further, the tissue to tissue ratio at 4 h was found to be 0.67 in the data set “in vivo” (Blood); 15.1 in the data set “in vivo” (Brain); 1.84 in “in vivo” (Heart); 0.61 in the data set “in vivo” (Kidney); 1.49 in “in vivo” (Liver); 0.92 in the data set “in vivo” (Lung). Besides, the tissue to tissue ratio at 4 h in the data set “in vivo” (Muscle) turned out to be 2.53; in the data set “in vivo” (Spleen) it was 1.35.
HVPLSPKy [CaIX-P1-5-12]: the “binding capacity on SKRC 52 cells compared to the native CaIX-P1 peptide” value in data set [3] was “significantly reduced binding activity”.
As for “TNHVPLSPy [CaIX-P1-3-10, fragment representing the middle part of CaIX-P1 (TNHVPLSPy)]”, in data set [3], the “binding capacity on SKRC 52 cells compared to the native CaIX-P1 peptide” value was “up to five-fold higher binding capacity” and the “binding after 10 minutes compared to 30 minutes incubation” value was “higher after 10 minutes as compared to 30 minutes incubation”.
Take “YNTNHVPL [CaIX-P1-1-8, 8-amino acid fragment of CaIX-P1 (YNTNHVPL)]”: in data set [3], the “binding capacity on SKRC 52 cells compared to the native CaIX-P1 peptide” value was “significantly reduced binding activity”.
As to YNTNHVPLSPKY [CaIX-P1], in the data set with SKRC 52 cells [2], the “inhibition of the radioligand binding” value was “over 95%” and the binding inhibition result was “about 80%”. The half-maximal inhibitory concentration (IC50) (usually the concentration at which inhibition is half-maximal) in the data set on SKRC 52 cells [2] (unlabeled competitor against 125I-CaIX-P1-4-10 on SKRC 52 cells, read-out: IC50) came to 1500 nM. For the same compound, the “binding after 10 minutes compared to 30 minutes incubation” value in data set [3] is given as “higher after 10 minutes as compared to 30 minutes incubation”.

(Values after article PMC3365038, “Optimization of a Novel Peptide Ligand Targeting Human Carbonic Anhydrase IX” (PLoS ONE, 2012).)
